CCCCc1nc(Cl)c(C(=O)OCOC(=O)OC(C)C)n1Cc1ccc(-c2ccccc2-c2nn[nH]n2)cc1
solubility (mole fraction)
Conditions	278.15 K	283.15 K	288.15 K	293.15 K	298.15 K	303.15 K	308.15 K	313.15 K
in acetone	0.00987	0.0112	0.0132	0.0155	0.019	0.0234	0.0299	0.0364
in acetonitrile	0.00131	0.00154	0.00195	0.00247	0.00326	0.00445	0.00597	0.00816
in methanol	0.00111	0.00128	0.00156	0.00209	0.00277	0.00361	0.00508	0.00772

Source: BigSolDB 2.1
